Results published in patent publication US20100168038A1, “USE OF COMPOUNDS IN COMBINATION WITH GAMMA-IRRADIATION FOR THE TREATMENT OF CANCER” (priority 2006, published 2010).
Where “and” joins values, the source holds several entries; their conditions need not be identical. Equal entries are not always repeated. Residues, ends and D or L forms follow the SMILES beside them.

Tests used:
[1] = Toxicity study in vivo, single agent; settings: doses up to 100 mg/kg, preliminary study
[2] = test system: HeLa cells (human cervical carcinoma); experiment: Tumor growth of HeLa cells in CB.17 SCID mice, Z-GLA-OH with gamma-irradiation; type: in vivo; settings: Z-GLA-OH + gamma-irradiation 1.5 Gy/dose
EL-4 lymphoma cells = experiment: Tumor growth of EL-4 lymphoma in C57Bl/6 mice, compound with gamma-irradiation; type: in vivo, mouse; settings: for tumor volume: single mouse; for tumor volume, mean: group mean
Description: Tumor Growth Experiments. Tumor cells were washed in PBS and resuspended in a volume of 200 micro-l per inoculate. The cells were then inoculated into the right flank at 10^6 per mouse and growth of the tumor was monitored by measurement two times per week. The initiation of anti-tumor treatment of the mice was to some extent individualized according to when tumor growth started in each mouse. The mice were irradiated with 4 Gy prior to tumor inoculation in order to inhibit anti-tumor immune responses. The tumor volume was calculated as the mean volume in mice with tumors growth, according to (a1×a2×a3)/2 (the numbers ai denote tumor diameter, width and depth). The time of first palpation varied between different mice, although the general pattern of growth was similar in virtually all of the mice. In most diagrams a log-scale is used to better visualize the therapeutic effects against small tumors, i.e. the presence of complete rejections. For inhibition of TPPII in vivo we made intraperitoneal injections with 13.8 mg per kg of body weight (14 micro-l of a 50 mM solution/mouse) of the Subtilisin inhibitor Z-Gly-Leu-Ala-OH (Z-GLA-OH, Bachem, Weil am Rhein, Germany) twice per week, diluted into 200 micro-l PBS. All gamma-irradiations were full body exposures.
Table 3 contains further in vivo data, showing tumor volume in mm^3, in groups of 7-8 mice, according to the EL-4 tumor model described above. 1.000.000 EL-4 lymphoma cells were inoculated subcutaneously at day 0. No palpable tumors were observed until day 22. At each treatment (twice weekly) mice with palpable tumors were given 400 Rads irradiation alone, or in combination with 14 micro-l 50 mM solution of Z-GLA-OH. Mice with no palpable tumors were not treated, i.e. in mice with rejected tumors, treatment was terminated and the mice were kept under observation.
All mice were 400 Rad (1 Gy=100 Rad) gamma-irradiated at day 0, a standard procedure to improve tumor acceptance. The compound was inoculated intraperitoneally, whereas tumors were always inoculated subcutaneously.

[3] = EL-4, irradiation + Z-GLA-OH, day 26
[4] = EL-4, irradiation + Z-GLA-OH, day 30
[5] = EL-4, irradiation + Z-GLA-OH, day 34
[6] = EL-4, irradiation + Z-GLA-OH, day 37
[7] = EL-4, irradiation + Z-GLA-OH, day 41
[8] = EL-4, irradiation + Z-GLA-OH, day 44
[9] = EL-4, irradiation + Z-GLA-OH, day 48
[10] = EL-4, irradiation + Z-GLA-OH, day 55
[11] = EL-4, irradiation + Z-GLA-OH, day 62
[12] = EL-4, irradiation + Z-GLA-OH, day 65
[13] = EL-4, irradiation + Z-GLA-OH, day 72
[14] = EL-4, irradiation + Z-GLA-OH, day 78

CC(C)C[C@H](NC(=O)CNC(=O)OCc1ccccc1)C(=O)N[C@@H](C)C(=O)O [Z-GLA-OH, Z-Gly-Leu-Ala-OH] (HELM PEPTIDE1{[O=C(OCc1ccccc1)[*:2]].G.L.A}$$$$V2.0)
toxicity in vivo [1]: minor effects | tumor response [2]: strong tumor regression | period of observation without re-growth of tumors after treatment was cancelled (EL-4 lymphoma cells; EL-4, after 4 Gy + Z-GLA-OH 13.8 mg/kg): over 3 months | tumor volume (EL-4 lymphoma cells; EL-4, irradiation 400 Rads + Z-GLA-OH 14 micro-l 50 mM i.p., day 22): 6.00 mm^3 and 0.50 mm^3 (5×) and 4.00 mm^3 | tumor volume, mean (EL-4 lymphoma cells; EL-4, irradiation + Z-GLA-OH, day 22): 2.06 mm^3 | tumor volume, mean (EL-4 lymphoma cells; [3]): 84.69 mm^3 | tumor volume (EL-4 lymphoma cells; [3]): 108.00 mm^3 (3×) and 126.00 mm^3 and 75.00 mm^3 and 50.00 mm^3 and 40.00 mm^3 and 62.50 mm^3 | tumor volume, mean (EL-4 lymphoma cells; [4]): 49.94 mm^3 | tumor volume (EL-4 lymphoma cells; [4]): 108.00 mm^3 (2×) and 13.50 mm^3 and 18.00 mm^3 and 24.00 mm^3 and 32.00 mm^3 and 48.00 mm^3 (2×) | tumor volume, mean (EL-4 lymphoma cells; [5]): 20.75 mm^3 | tumor volume (EL-4 lymphoma cells; [5]): 10.00 mm^3 and 0.50 mm^3 and 62.50 mm^3 and 24.00 mm^3 (2×) and 13.50 mm^3 (2×) and 18.00 mm^3 | tumor volume, mean (EL-4 lymphoma cells; [6]): 12.69 mm^3 | tumor volume (EL-4 lymphoma cells; [6]): 8.00 mm^3 and 18.00 mm^3 and 12.00 mm^3 and 6.00 mm^3 (2×) and 27.00 mm^3 and 24.00 mm^3 and 0.50 mm^3 | tumor volume, mean (EL-4 lymphoma cells; [7]): 3.88 mm^3 | tumor volume (EL-4 lymphoma cells; [7]): 0.50 mm^3 (3×) and 4.00 mm^3 (4×) and 13.50 mm^3 | tumor volume, mean (EL-4 lymphoma cells; [8]): 1.14 mm^3 | tumor volume (EL-4 lymphoma cells; [8]): 0.50 mm^3 (4×) and 0.10 mm^3 and 2.00 mm^3 and 1.00 mm^3 and 4.00 mm^3 | tumor volume, mean (EL-4 lymphoma cells; [9]): 0.18 mm^3 | tumor volume (EL-4 lymphoma cells; [9]): 0.10 mm^3 (4×) and 0.50 mm^3 (2×) and 0.00 mm^3 (2×) | tumor volume, mean (EL-4 lymphoma cells; [10]): 0.07 mm^3 | tumor volume (EL-4 lymphoma cells; [10]): 0.00 mm^3 (6×) and 0.10 mm^3 and 0.50 mm^3 | tumor volume, mean (EL-4 lymphoma cells; [11]): 0.01 mm^3 | tumor volume (EL-4 lymphoma cells; [11]): 0.10 mm^3 and 0.00 mm^3 (7×) | tumor volume, mean (EL-4 lymphoma cells; [12]): 0.01 mm^3 | tumor volume (EL-4 lymphoma cells; [12]): 0.00 mm^3 | tumor volume, mean (EL-4 lymphoma cells; [13]): 0.01 mm^3 | tumor volume (EL-4 lymphoma cells; [13]): 0.10 mm^3 and 0.00 mm^3 (7×) | tumor volume, mean (EL-4 lymphoma cells; [14]): 0.00 mm^3 | tumor volume (EL-4 lymphoma cells; [14]): 0.00 mm^3 | tumor response, summary of Table 3 (EL-4 lymphoma cells; EL-4, 400 Rads irradiation + 14 micro-l 50 mM Z-GLA-OH at each treatment (twice weekly)): complete rejection of established tumors | mice with tumor regression (partial effects) (EL-4 lymphoma cells; EL-4, Z-GLA-OH 3.5 mg/kg and lower doses + 3 Gy gamma-irradiation doses): 2 out of 4 | mice with complete tumor rejection (EL-4 lymphoma cells; EL-4, Z-GLA-OH 6.9 mg/kg + 3 Gy gamma-irradiation doses): 3 out of 4 | mice with complete rejection (EL-4 lymphoma cells; EL-4, gamma-irradiation doses of 1 Gy + Z-GLA-OH injection): 1 out of 4 | mice with complete rejection (EL-4 lymphoma cells; EL-4, gamma-irradiation doses of 2 Gy + Z-GLA-OH injection): 2 out of 5 | tumor response (EL-4 lymphoma cells; EL-4, gamma-irradiation doses of 3 Gy + Z-GLA-OH injection): complete regression | tumor response (EL-4 lymphoma cells; established EL-4 tumors, C57Bl/6 mice, 3-4 doses of 400 Rad (one dose/week) + Z-GLA-OH 13.8 mg/kg twice weekly, all mice tested): complete tumor regression
